According to publication PMC3929365, “Benzimidazoisoquinolines: A New Class of Rapidly Metabolized Aryl Hydrocarbon Receptor (AhR) Ligands that Induce AhR-Dependent Tregs and Prevent Murine Graft-Versus-Host Disease” (PLoS ONE, 2014):
Several values for one entry are separate records, joined by “and”; a condition that tells them apart may be missing. Identical values can stand only once.

Experiments:
[1] = tested on: AhR; assay: AhR-regulated (XRE) luciferase reporter gene assay in Hepa-1 cells; assay type: cell-based, mouse; conditions: 10 nM, 12 h, Hepa1 cells, XRE-luciferase reporter
Experimental: Figure 1 10-Cl-BBQ is a potent AhR ligand. A) Structure of 10-Cl-BBQ. […] C) Hepa-1 cells expressing endogenous AhR were transfected with an AhR-regulated luciferase reporter gene (xenobiotic responsive element (XRE)-MMTVpromoter-Luc) and the reporter gene activity was measured after 12 h of treatment with 1 nM TCDD or the indicated concentrations of 10-Cl-BBQ. D) Alteration in proteolytic pattern of AhR by 10-Cl-BBQ. Whole cell lysate (45 µg of protein) from mouse hepatoma Hepa1c1c7 cells was incubated with 100 nM 10-Cl-BBQ or 0.1% DMSO for 1 h at RT and proteolyzed by 1 µg/ml subtilisin for 1, 2, 4, and 8 min at RT. Proteolytic cleavage products of AhR were analyzed by immunoblot. E) Electrophoretic mobility shift assay showing the ligand-stimulated binding of AhR to XRE. Whole cell lysate (18 µg of protein) from mouse hepatoma Hepa1c1c7 cells was incubated with 10 nM 10-Cl-BBQ or 0.1% DMSO for 2 h at room temperature and ^32P-labeled oligonucleotide containing XRE for 20 min at room temperature. The samples were electrophoresed on a native polyacrylamide gel and the signal was visualized by Phosphor Imager. Unlabeled competitor XRE or antibody (Ab) against AhR or Arnt was co-incubated with ^32P-labeled oligonucleotide.
The mean luciferase activity is shown with SEM. […] 3-MC binding to AhR.

[2] = tested on: AhR
Experimental: The AhR reporter gene assay was performed as previously described (20–22).
B) Hepa1 cells expressing endogenous AhR were transfected with a XRE-luciferase reporter gene. […] The mean luciferase activity is shown with SEM. C) Dose response curves for the competitive inhibition of [^3H] 3-MC binding to AhR.
3-methylcholanthrene (3-MC) to AhR (Fig. 5C).

[3] = tested on: donor CD4+ T cells; assay: AhR-Treg phenotype of alloactivated donor CD4+ T cells 48 h after initiating the GVH response; assay type: in vivo, B6D2F1 host mice; conditions: 10 mg/kg i.p. day 0 and day 1, analysed day 2, vs vehicle
Experimental: Splenocytes and lymphocytes were harvested from C57Bl/6 mice. In some experiments, T cells were purified by negative selection using a Pan-T kit (Miltenyi Biotec) and stained with 2 µM carboxyfluorescein succinimidyl ester (CFSE) (Life Technologies). At least 2×10^7 purified T cells or approximately 1×10^8 pooled splenocytes and lymphocytes were injected i.v. into B6D2F1 host mice to initiate the GVH response. GVHD pathology was assessed on a scale of 0 to 3 (0 = normal, 1 = moderate morbidity, 2 = severe morbidity, 3 = death) according to the following five criteria: weight-loss, posture, activity, fur texture and death and reported as a Clinical GVHD Score.
Host mice were treated daily with vehicle, 10-Cl-BBQ or BBQ analogues by i.p. injection. The vehicle consisted of a mixture of 6.7% anisole and peanut oil. Mice treated with a single i.p. dose of 15 µg TCDD/kg body weight in the same vehicle were used as positive controls.
Antibodies to CTLA-4, Foxp3, ICOS, CD62L, CD25, CD19, CD44) and a fixable viability dye were purchased from eBiosciences. Additional antibody reagents included CD4 and CD8 (Life Technologies); H-2D^d (Biolegend) and CD45RB (PharMingen). After surface staining, the cells were fixed and permeabilized with Cytofix/cytoperm (BD Biosciences) for intracellular CTLA-4 stain. The flow cytometry data were acquired on an FC500 instrument (Beckman Coulter) and the data were analyzed using WinList 7.0 (Verity Software House). Fluorescence minus one (FMO) controls were used for setting histogram gates during the analysis.
Figure 3 10-Cl-BBQ induces an AhR-dependent Treg phenotype 48 h after initiating the GVH response. On day 0, B6D2F1 host mice in groups of 5 were injected with CFSE-labeled C57Bl/6 T cells and given 15 mg/kg 10-Cl-BBQ, 15 µg/kg TCDD or vehicle by i.p. injection. At 24 h, an additional dose of 7 mg/kg 10-Cl-BBQ or vehicle was given. […] Treatment mean ± SEM is shown in the quadrant of interest. […] C) AhR-dependent induction of the donor Treg phenotype by 10-Cl-BBQ. On day 0, B6D2F1 host mice in groups of 5 were injected with donor T cells obtained from AhR^+/+ or AhR^−/− C57Bl/6 mice. Host mice were treated with 2 mg/kg10-Cl-BBQ or vehicle immediately following donor cell transfer and again at 24 hr. […] D) Dose-dependent induction of Treg phenotype by 10-Cl-BBQ. On day 0, B6D2F1 host mice in groups of 3–5 were injected with C57Bl/6 T cells. Mice were immediately treated with 0, 0.4, 2 or 10 mg/kg 10-Cl-BBQ and again on day 1. On day 2, expression of markers associated with the AhR-Treg phenotype increased as the dose of 10-Cl-BBQ increased. E) In the same mice as in D, lymph nodes were harvested and analyzed for expression of genes that were previously shown to increase under the same GVH conditions with TCDD treatment (13). […] Changes in gene expression were calculated relative to the β-actin gene, and the fold-induction was calculated by the ΔΔCt method using the vehicle-treated samples as a control. * = p<0.05 relative to vehicle treatment. […]

[4] = tested on: AhR; parameters: method as in PMID 18755850; conditions: MCF-7 cells and human macrophages; cited from earlier work
[5] = tested on: CaMKK; parameters: method as in PMID 11867640; conditions: cited from earlier work

| IC50 [2] | Molecule | activation of AhR (AhR-regulated reporter gene activity) [1] | percentage of alloresponsive donor CD4+ T cells expressing CD25 with AhR-Treg markers ICOS, CD62Llow and CTLA-4 [3] | concentration at which AhR activation occurred [4] [µM] | concentration known to fully inhibit CaMKK [5] [µM] |
| --- | --- | --- | --- | --- | --- |
| 0.0137 µM | O=c1c2cccc3cccc(c32)c2nc3ccccc3n12 [analogue 1, 7H-Benzimidazo[2,1-a]benzo[de]isoquinolin-7-one] | 13 fold | significantly increased |  |  |
| 0.0052 µM | O=c1c2ccc(Cl)c3cccc(c32)c2nc3cc(Cl)ccc3n12 [analogue 4, 4,11-Dichloro-7H-benzimidazo[2,1-a]benzo[de]isoquinolin-7-one] | 19 fold | significantly increased |  |  |
| 45.2 µM and 45 µM | O=C(O)c1ccc2c3c1cccc3c(=O)n1c3ccccc3nc21 [analogue 5, 7-Oxo-7H-benzimidazo[2,1-a]benzo[de]isoquinoline-3-carboxylic acid, reference compound] | did not induce reporter activity |  | 25 | 25 |

More lines, now with the values behind:

| Molecule | IC50 [2] | activation of AhR (AhR-regulated reporter gene activity) [1] | percentage of alloresponsive donor CD4+ T cells expressing CD25 with AhR-Treg markers ICOS, CD62Llow and CTLA-4 [3] | concentration at which AhR activation occurred [4] [µM] | concentration known to fully inhibit CaMKK [5] [µM] |
| --- | --- | --- | --- | --- | --- |
| 11-Chloro-8H-benzimidazo[2,1-a]phenanthro[3,4,5-defg]isoquinolin-8-one [analogue 3] |  | 2 fold |  |  |  |
| Clc1cc2c(cc1Cl)Oc1cc(Cl)c(Cl)cc1O2 [TCDD, 2,3,7,8-tetrachlorodibenzo-p-dioxin, reference compound] | 0.0047 µM |  |  |  |  |
| NN1C(=O)c2ccc3c(=O)n4c5ccc(Cl)cc5nc4c4ccc(c2c34)C1=O [analogue 2, 2-Amino-10-chlorobenzimidazo[2,1-b]benzo[lmn][3,8]phenanthroline-1,3,6(2H)-trione] |  | did not induce reporter activity |  |  |  |
